Assay results reported in US20250177566A1, “USE OF CHEMICAL EPIGENETIC MODIFIERS TO MODULATE GENE EXPRESSION” (The University of North Carolina at Chapel Hill, priority 2022, published 2025).

Experiments:
Format in all cases: cell-based, human
TRE3G-GFP reporter gene = TRE3G-GFP reporter gene activation in HCT116, dCas9 + MS2-FKBP*x2 (F36V) system, flow cytometry; parameters: fold change, GFP: reference not given here; details: FIG. 5A, 10 nM, 48 hrs
CXCR4 [1] = test: CXCR4 mRNA activation in HCT116 stably expressing dCas9 and MS2-FKBP*x2, qRT-PCR; details: for fold change, CXCR4 mRNA (CEM Treated vs Non-Treated): 48 hrs; for fold change, CXCR4 mRNA (CXCR4 gRNA vs NT gRNA): FIG. 3B; for fold change, CXCR4 mRNA (CXCR4 gRNA vs NT gRNA) / fold change, CXCR4 mRNA (washout vs AP1867 competition) / fold change, CXCR4 mRNA (Compare to 0 h): CEM203 50 nM; for fold change, CXCR4 mRNA (washout vs AP1867 competition): FIG. 3C; for fold change, CXCR4 mRNA (Compare to 0 h): FIG. 7A
Description: To further explore the activation potential of the SLF*-CEMa, their ability to target endogenous genes was evaluated (FIGS. 2A and 2B). Lentivirus was used to establish a stable HCT116 cell line expressing dCas9 and MS2-FKBP*x2 constructs, selecting for cells with antibiotic resistance. […] All CEMs were screened for their ability to activate the CXCR4 gene at 5 nM (FIG. 2C). RNA extraction and quantitative RT-PCR (qRT-PCR) were performed after 48 hours of CEM treatment.
To determine the optimal treatment concentration of the SLF*-CEMa molecules in this context, HCT116 cells were treated with 1 nM, 5 nM, 25 nM, and 50 nM of CEM203, CEM207, or CEM87. […] After 48 hours, RNA extraction followed by qRT-PCR was performed to evaluate the change in mRNA expression of CXCR4 (FIG. 2D). […] To directly compare this induced activation to other CRISPR-Cas9-based epigenetic activators, dCas9-VPR and dCas9-p300 constructs were virally infected into HCT116 cells and CXCR4 activation assessed in a similar fashion (FIGS. 2A and 2B).
To determine the time at which SLF*-CEMa most effectively induces gene activation, CXCR4 gene expression changes over time were investigated in dCas9 and MS2-FKBP*x2 stably infected HCT116 cells. Cells were treated with either vehicle, […] (FIG. 3A). RNA extraction and qRT-PCR were performed at 12, 24, 48, 72, and 96 hrs time points (FIG. 3B).
To investigate if endogenous gene activation triggered by the SLF*-CEMa compounds is also reversible, HCT116 cells were treated with CEM203 (50 nM) or CEM207 (25 nM) for 24 hours after transfecting CXCR4 gRNA, and then the CEMs were removed by media exchange at various time points. […] Likewise, it was investigated whether treatment with excess AP1867 could further reverse gene activation, potentially in a more robust fashion than with washout alone if there is any remaining intracellular SLF*-CEMa. To test this, after 24 hours of SLF*-CEMa treatment, a media exchange containing 20 μM AP1867 was performed (FIGS. 3C and 3D).
RNA extraction and qRT-PCR. All RNA extraction experiments were conducted in 12-well plate format. Culturing medium was removed, and cells were washed with 1×PBS, following with 0.05% trypsin to disassociate. After being quenched by medium and centrifuged, cells were washed with 1×PBS, and the RNA extraction was performed by using RNeasy Plus Mini kit (Qiagen, 74134). RT-qPCR was conducted by using RNA-to CT 1-step kit (Thermo Fisher Scientific, 4389986). The primer sets used in quantifying each gene can be found in Table 4.

CXCR4 [2] = test: CXCR4 mRNA activation in HCT116 stably expressing dCas9 and MS2-FKBPx2 (WT-FKBP), qRT-PCR; details: FIG. 6, WT FKBP system, 48 hrs

Compound: CC[C@H](C(=O)N1CCCC[C@H]1C(=O)O[C@H](CCc1ccc(OC)c(OC)c1)c1cccc(OCC(=O)NCCOCCOCCOCCOCCNC(=O)C[C@@H]2N=C(c3ccc(Cl)cc3)c3cc(OC)ccc3-n3c(C)nnc32)c1)c1cc(OC)c(OC)c(OC)c1 [CEM203, (1R)-1-(3-((20-((4S)-6-(4-Chlorophenyl)-8-methoxy-1-methyl-4H-benzo[f][1,2,4]triazolo[4,3-a][1,4]diazepin-4-yl)-2,19-dioxo-6,9,12,15-tetraoxa-3,18-diazaicosyl)oxy)phenyl)-3-(3,4-dimethoxyphenyl) propyl (2S)-1-((S)-2-(3,4,5-trimethoxyphenyl)butanoyl) piperidine-2-carboxylate]
- fold change, GFP (TRE3G-GFP reporter gene; NT gRNA): 0.7 fold
- fold change, GFP (TRE3G-GFP reporter gene; TRE3G gRNA): 9.4 fold
- fold change, CXCR4 mRNA (CEM Treated vs Non-Treated) (CXCR4 [1]; FIG. 2D, CXCR4 gRNA, 1 nM): 2.3 fold
- fold change, CXCR4 mRNA (CEM Treated vs Non-Treated) (CXCR4 [1]; FIG. 2D, CXCR4 gRNA, 5 nM): 13.0 fold
- fold change, CXCR4 mRNA (CEM Treated vs Non-Treated) (CXCR4 [1]; FIG. 2D, CXCR4 gRNA, 25 nM): 35.9 fold
- fold change, CXCR4 mRNA (CEM Treated vs Non-Treated) (CXCR4 [1]; FIG. 2D, CXCR4 gRNA, 50 nM): 54.0 fold
- fold change, CXCR4 mRNA (CEM Treated vs Non-Treated) (CXCR4 [1]; FIG. 2D, NT gRNA, 1 nM): 0.98 fold
- fold change, CXCR4 mRNA (CEM Treated vs Non-Treated) (CXCR4 [1]; FIG. 2D, NT gRNA, 5 nM): 1.30 fold
- fold change, CXCR4 mRNA (CEM Treated vs Non-Treated) (CXCR4 [1]; FIG. 2D, NT gRNA, 25 nM): 2.42 fold
- fold change, CXCR4 mRNA (CEM Treated vs Non-Treated) (CXCR4 [1]; FIG. 2D, NT gRNA, 50 nM): 2.57 fold
- CXCR4 activation compared to dCas9-p300 (CXCR4 [1]; FIG. 2D, concentrations above 5 nM): higher CXCR4 activation
- fold change, CXCR4 mRNA (CXCR4 gRNA vs NT gRNA) (CXCR4 [1]; 24 h): 17.9 fold
- fold change, CXCR4 mRNA (CXCR4 gRNA vs NT gRNA) (CXCR4 [1]; 48 h): 19.8 fold
- fold change, CXCR4 mRNA (CXCR4 gRNA vs NT gRNA) (CXCR4 [1]; 48 h AP1867 (washout with 20 μM AP1867 after 24 hrs)): 3.6 fold
- fold change, CXCR4 mRNA (CXCR4 gRNA vs NT gRNA) (CXCR4 [1]; 48 h wash (media washout after 24 hrs)): 7.7 fold
- fold change, CXCR4 mRNA (CXCR4 gRNA vs NT gRNA) (CXCR4 [1]; 72 h): 13.1 fold
- fold change, CXCR4 mRNA (CXCR4 gRNA vs NT gRNA) (CXCR4 [1]; 72 h AP1867 (washout with 20 μM AP1867 after 24 hrs)): 1.9 fold
- fold change, CXCR4 mRNA (CXCR4 gRNA vs NT gRNA) (CXCR4 [1]; 72 h wash (media washout after 24 hrs)): 5.6 fold
- fold change, CXCR4 mRNA (CXCR4 gRNA vs NT gRNA) (CXCR4 [1]; 96 h AP1867 (washout with 20 μM AP1867 after 24 hrs)): 1.2 fold
- fold change, CXCR4 mRNA (CXCR4 gRNA vs NT gRNA) (CXCR4 [1]; 96 h wash (media washout after 24 hrs)): 3.3 fold
- fold change, CXCR4 mRNA (washout vs AP1867 competition) (CXCR4 [1]; 48 h): 1.5 fold
- fold change, CXCR4 mRNA (washout vs AP1867 competition) (CXCR4 [1]; 72 h): 4.2 fold
- fold change, CXCR4 mRNA (washout vs AP1867 competition) (CXCR4 [1]; 96 h): 1.7 fold
- fold change, CXCR4 mRNA (Compare to 0 h) (CXCR4 [1]; NT gRNA, 12 h): 4.9 fold
- fold change, CXCR4 mRNA (Compare to 0 h) (CXCR4 [1]; NT gRNA, 24 h): 2.2 fold
- fold change, CXCR4 mRNA (Compare to 0 h) (CXCR4 [1]; NT gRNA, 48 h): 1.1 fold
- fold change, CXCR4 mRNA (Compare to 0 h) (CXCR4 [1]; NT gRNA, 48 h AP1867 (washout with 20 μM AP1867 after 24 hrs)): 0.8 fold
- fold change, CXCR4 mRNA (Compare to 0 h) (CXCR4 [1]; NT gRNA, 48 h wash (media washout after 24 hrs)): 0.7 fold
- fold change, CXCR4 mRNA (Compare to 0 h) (CXCR4 [1]; NT gRNA, 72 h): 1.0 fold
- fold change, CXCR4 mRNA (Compare to 0 h) (CXCR4 [1]; NT gRNA, 72 h AP1867 (washout with 20 μM AP1867 after 24 hrs)): 0.6 fold
- fold change, CXCR4 mRNA (Compare to 0 h) (CXCR4 [1]; NT gRNA, 72 h wash (media washout after 24 hrs)): 0.8 fold
- fold change, CXCR4 mRNA (Compare to 0 h) (CXCR4 [1]; NT gRNA, 96 h): 1.3 fold
- fold change, CXCR4 mRNA (Compare to 0 h) (CXCR4 [1]; NT gRNA, 96 h AP1867 (washout with 20 μM AP1867 after 24 hrs)): 0.5 fold
- fold change, CXCR4 mRNA (Compare to 0 h) (CXCR4 [1]; NT gRNA, 96 h wash (media washout after 24 hrs)): 0.7 fold
- CXCR4 mRNA expression after CEM washout in comparison to cells continuously treated (CXCR4 [1]; FIGS. 3C and 3D, CEM203 50 nM or CEM207 25 nM for 24 hours, then media exchange, all time points): significantly lowered CXCR4 mRNA expression
- time point of highest (peak) CXCR4 mRNA activation (CXCR4 [1]; time course 12, 24, 48, 72, 96 hrs, CXCR4 gRNA): 24 h
- fold change, CXCR4 mRNA (CXCR4 gRNA vs NT gRNA) (CXCR4 [2]; 25 nM): 1.5 fold
- fold change, CXCR4 mRNA (CXCR4 gRNA vs NT gRNA) (CXCR4 [2]; 200 nM): 3.5 fold
